{"source": "patent US20200375965A1", "about": "“Targeting Lipid Metabolism and Free Fatty Acid (FFA) Oxidation to Treat Diseases Mediated by Resident Memory T Cells (TRM)” (The Brigham and Women's Hospital, Inc., priority 2018, published 2020)", "key": {"[1]": {"tested_on": "WR-VACV", "parameters": "species or system mice", "conditions": "mouse, in vivo"}, "[2]": {"tested_on": "VACV", "parameters": "species or system mice", "conditions": "mouse, in vivo"}, "[3]": {"tested_on": "OT-I TRM, TCM and Fabp4/5 dKO TRM", "assay": "Seahorse Fatty Acid Oxidation (FAO) assay, oxygen-consumption rate", "format": "cell-based, mouse", "description": "Oxidation of exogenous free fatty acids (FFA) was measured using XF Palmitate-BSA FAO substrate with XF cell mito stress kit according to the manufacturer's protocol (Seahorse Bioscience). Freshly isolated and sorted T cells (2.5×10^5) were incubated for 30 min with FAO assay medium (111 mM NaCl, 4.7 mM KCl, 1.25 mM CaCl2), 2.0 mM MgSO4, 1.2 mM Na2HPO4, 2.5 mM glucose, 0.5 mM carnitine and 5 mM HEPES). When required, cells were pre-treated with etomoxir (40 μM) for 15 min. Afterwards, BSA (34 μM) or palmitate-BSA (200 μM palmitate conjugated with 34 μM BSA) was added to the medium, and the oxygen-consumption rate (OCR) was measured under basal conditions and in response to 1 uM oligomycin, 1.5 uM fluorocarbonyl cyanide phenylhydrazone (FCCP), and 100 nM rotenone+1 uM antimycin A. Results were normalized to those of control cells in the presence of BSA."}, "[4]": {"tested_on": "TRM mediated contact hypersensitivity (CHS)", "assay": "DNFB contact hypersensitivity (CHS), ear thickness", "format": "in vivo, C57BL/6 mice", "conditions": "etomoxir 1 ug/site, trimetazidine 10 ug/site at challenge with 0.25% DNFB", "description": "FIG. 15. […] Effect of FAO inhibition on contact hypersensitivity (CHS) reaction post DNFB re-exposure. DNFB: 20 ul, 0.25% in acetone:olive oil (aOO) (3:1 v/v); Etomoxir (1 ug/site); Trimetazidine (10 ug/site). N=10 mice per group.\nC57BL/6 mice were sensitized by topical applications of 20 μl of 0.25% DNFB diluted in acetone olive oil (3:1 v/v) at the indicated time points (day 0, 1 and 7). Challenge was performed at the infection site with 20 μl of DNFB-acetone olive oil (aOO) (0.25%), with or without etomoxir (1 ug/site) and trimetazidine (10 ug/site), at the indicated time points. Then the ear thickness of the mice was measured with a digital thickness gauge (Mitsutoyo) for the following days."}, "[5]": {"tested_on": "OT-1 skin TRM", "assay": "Bodipy FL C16 (Bodipy conjugated palmitate) uptake ex vivo, flow cytometry", "format": "cell-based, mouse", "conditions": "pre-incubation with unlabeled palmitate (100 μM palmitic acid, 10 min, 37° C.); day 30 TRM", "source_text": "The following anti-mouse antibodies were obtained from BD PharMingen: PerCP-conjugated anti-CD3e (553067), PE-conjugated anti-CD8 (557654), PE-Cy7-conjugated anti-CD8 (552877), APC-Cy7-conjugated anti-CD8 (557654), PE-conjugated anti-Thy1.1 (561404), APC-conjugated anti-Thy1.1 (557266), Alexa Fluor 488-conjugated anti-KLRG1 (561619), PE-conjugated anti-integrin α4β7 (553811), PE-Cy7-conjugated anti-CD62L (560516), APC-Cy7-conjugated CD62L (560514), APC-conjugated anti-IFN-γ (554413). Biolegend: Alexa Fluor 488-conjugated anti-CD3e (100321), Alexa Fluor 647-conjugated anti-CD4 (100424), Alexa Fluor 594-conjugated anti-Ep-CAM (118222), FITC-conjugated anti-CD45.1 (110706), PE-conjugated anti-CD45.1 (110708), PE-Cy7-conjugated anti-CD45.2 (109830), APC-conjugated anti-CD45.2 (109814), PE-conjugated anti-CD45.2 (109808), APC-conjugated anti-KLRG1 (138412), PE-conjugated anti-CD44 (103008), PE-Cy7-conjugated anti-CD44 (103030), PE-Cy7-conjugated anti-CD69 (104512), APC-conjugated anti-CD103 (121414), APC-conjugated anti-integrin α4β7 (120608). […] Apoptosis was measured with FITC Annexin V Apoptosis Detection Kit (640922; Biolegend) according to manufacturer's protocol. Flow cytometry data were acquired with a FACS Canto II flow cytometer (BD Biosciences) and data were analyzed with Flowjo software (Tree Star). […]"}}}
{"smiles": "CCCCCCCCc1ccc(CCC(N)(CO)CO)cc1", "note": "[FTY720]", "values": [{"measurement": "mortality", "setting": "[1]", "value": 100, "unit": "%"}, {"measurement": "protection from lethality", "setting": "[1]", "value": "partially but significantly protected"}, {"measurement": "clearing of virus from skin by established OT-I WT TRM", "setting": "[2]; ip, 1 mg/kg", "value": "unaffected"}, {"measurement": "reduced viral clearance by OT-I TRM lacking Fabp4 and Fabp5", "setting": "[2]; ip, 1 mg/kg", "value": "exaggerated"}]}
{"smiles": "CCOC(=O)C1(CCCCCCOc2ccc(Cl)cc2)CO1", "note": "(stereo not shown) [etomoxir, 2-(6-(4-chlorophenoxy)-hexyl)-oxirane-2-carboxylic acid ethyl ester]", "values": [{"measurement": "enhanced basal and FCCP-stimulated maximal oxygen-consumption rate (OCR) induced by extracellular fatty acids", "setting": "[3]; OT-I TRM, pre-treatment with etomoxir 40 μM for 15 min", "value": "blocked"}, {"measurement": "cellular respiration (OCR)", "setting": "[3]; TCM or Fabp4/5 dKO TRM OT-I cells, addition of etomoxir", "value": "no effect"}, {"measurement": "VACV clearing capacity of OT-I WT TRM", "setting": "[2]", "value": "reduced"}, {"measurement": "contact hypersensitivity (CHS) reaction post DNFB re-exposure", "setting": "[4]", "value": "Block"}]}
{"smiles": "COc1ccc(CN2CCNCC2)c(OC)c1OC", "note": "[trimetazidine]", "values": [{"measurement": "contact hypersensitivity (CHS) reaction post DNFB re-exposure", "setting": "[4]", "value": "Block"}]}
{"smiles": "CCCCCCCCCCCCCCCC(=O)O", "note": "[unlabeled palmitate, palmitic acid]", "values": [{"measurement": "uptake of extracellular Bodipy conjugated palmitate", "setting": "[5]", "value": "blocked"}]}
